Reference: PubChem BioAssay AID1963981 (Molecular Pharmacology Branch, DTP, NCI, 2024)

Tested on: 354836-022-R-J1-PDC multicell spheroid viability
Assay: Anticancer human tumor 354836-022-R-J1-PDC patient-derived head and neck squamous cell carcinoma cell line growth inhibition [PI3K]
Conditions: for IC50: curve of first compound; for viability, T/C: stronger effect = lower value
Method in brief: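 Tumor cells grown as multi-cell spheroids with HUVEC endothelial cells and MSC fibroblast-like stroma were treated with targeted agents combined with inavolisib, alpelisib, duvelisib or copanlisib. Doses fell in half-log steps from near clinical Cmax, else from 10 microM. Viability was measured.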

[1] = second compound 0.0316 µM, first compound 0.0316 µM
[2] = second compound 0.0316 µM, first compound 0.1 µM
[3] = second compound 0.0316 µM, first compound 0.316 µM
[4] = second compound 0.0316 µM, first compound 1 µM
[5] = second compound 0.0316 µM, first compound 3.16 µM
[6] = second compound 0.0316 µM, first compound 10 µM
[7] = second compound 0.1 µM, first compound 0.0316 µM
[8] = second compound 0.1 µM, first compound 0.1 µM
[9] = second compound 0.1 µM, first compound 0.316 µM
[10] = second compound 0.1 µM, first compound 1 µM
[11] = second compound 0.1 µM, first compound 3.16 µM
[12] = second compound 0.1 µM, first compound 10 µM
[13] = second compound 0.316 µM, first compound 0.0316 µM
[14] = second compound 0.316 µM, first compound 0.1 µM
[15] = second compound 0.316 µM, first compound 0.316 µM
[16] = second compound 0.316 µM, first compound 1 µM
[17] = second compound 0.316 µM, first compound 3.16 µM
[18] = second compound 0.316 µM, first compound 10 µM
[19] = second compound 1 µM, first compound 0.0316 µM
[20] = second compound 1 µM, first compound 0.1 µM
[21] = second compound 1 µM, first compound 0.316 µM
[22] = second compound 1 µM, first compound 1 µM
[23] = second compound 1 µM, first compound 3.16 µM
[24] = second compound 1 µM, first compound 10 µM
[25] = second compound 3.16 µM, first compound 0.0316 µM
[26] = second compound 3.16 µM, first compound 0.1 µM
[27] = second compound 3.16 µM, first compound 0.316 µM
[28] = second compound 3.16 µM, first compound 1 µM
[29] = second compound 3.16 µM, first compound 3.16 µM
[30] = second compound 3.16 µM, first compound 10 µM
[31] = second compound 10 µM, first compound 0.0316 µM
[32] = second compound 10 µM, first compound 0.1 µM
[33] = second compound 10 µM, first compound 0.316 µM
[34] = second compound 10 µM, first compound 1 µM
[35] = second compound 10 µM, first compound 3.16 µM
[36] = second compound 10 µM, first compound 10 µM
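Further: spheroids exposed to agents for seven days before the viability read.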

**Q.** `C=CC(=O)N1CCN(c2nc(=O)n(-c3c(C)ccnc3C(C)C)c3nc(-c4c(O)cccc4F)c(F)cc23)C(C)C1` (centres undefined) + Cc1nc(NC(=O)N2CCCC2C(N)=O)sc1-c1ccnc(C(C)(C)C(F)(F)F)c1 was tested. Which IC50 (second compound 0.0316 µM) did it give?
**A.** > 10 µM

**Q.** And the IC50 (second compound 0.1 µM)?
**A.** > 10 µM

**Q.** What about the IC50 (second compound 0.316 µM) of the same compound?
**A.** > 10 µM

**Q.** What about the IC50 (second compound 1 µM) of the same compound?
**A.** > 10 µM

**Q.** And the IC50 (second compound 3.16 µM)?
**A.** > 10 µM

**Q.** What about the IC50 (second compound 10 µM) of the same compound?
**A.** < 0.0316 µM

**Q.** What about the viability, T/C [1] of the same compound?
**A.** 100%

**Q.** What about the viability, T/C [2] of the same compound?
**A.** 90.5%

**Q.** And the viability, T/C [3]?
**A.** 96.2%

**Q.** What about the viability, T/C [4] of the same compound?
**A.** 87.7%

**Q.** What about the viability, T/C [5] of the same compound?
**A.** 113%

**Q.** What about the viability, T/C [6] of the same compound?
**A.** 92.5%

**Q.** And the viability, T/C [7]?
**A.** 118%

**Q.** What about the viability, T/C [8] of the same compound?
**A.** 100%

**Q.** What about the viability, T/C [9] of the same compound?
**A.** 97.2%

**Q.** What about the viability, T/C [10] of the same compound?
**A.** 96.7%

**Q.** And the viability, T/C [11]?
**A.** 110%

**Q.** What about the viability, T/C [12] of the same compound?
**A.** 105%

**Q.** And the viability, T/C [13]?
**A.** 90.5%

**Q.** What about the viability, T/C [14] of the same compound?
**A.** 99.2%

**Q.** What about the viability, T/C [15] of the same compound?
**A.** 92.1%

**Q.** What about the viability, T/C [16] of the same compound?
**A.** 90.6%

**Q.** And the viability, T/C [17]?
**A.** 105%

**Q.** And the viability, T/C [18]?
**A.** 97.6%

**Q.** And the viability, T/C [19]?
**A.** 72.6%

**Q.** What about the viability, T/C [20] of the same compound?
**A.** 77.8%

**Q.** And the viability, T/C [21]?
**A.** 84.1%

**Q.** And the viability, T/C [22]?
**A.** 105%

**Q.** What about the viability, T/C [23] of the same compound?
**A.** 88%

**Q.** What about the viability, T/C [24] of the same compound?
**A.** 89.4%

**Q.** What about the viability, T/C [25] of the same compound?
**A.** 57.8%

**Q.** And the viability, T/C [26]?
**A.** 65.8%

**Q.** And the viability, T/C [27]?
**A.** 71.8%

**Q.** And the viability, T/C [28]?
**A.** 72.2%

**Q.** What about the viability, T/C [29] of the same compound?
**A.** 90.7%

**Q.** And the viability, T/C [30]?
**A.** 60.2%

**Q.** And the viability, T/C [31]?
**A.** 36.8%

**Q.** And the viability, T/C [32]?
**A.** 36.5%

**Q.** What about the viability, T/C [33] of the same compound?
**A.** 33.7%

**Q.** What about the viability, T/C [34] of the same compound?
**A.** 46.4%

**Q.** And the viability, T/C [35]?
**A.** 43.8%

**Q.** And the viability, T/C [36]?
**A.** 29.5%

**Q.** What does the source list for `CC(Cn1ccc(-c2ccc(C#N)c(Cl)c2)n1)NC(=O)c1cc(C(C)O)[nH]n1` (centres undefined) + Cc1nc(NC(=O)N2CCCC2C(N)=O)sc1-c1ccnc(C(C)(C)C(F)(F)F)c1?
**A.** IC50 (second compound 0.0316 µM): > 10 µM; IC50 (second compound 0.1 µM): > 10 µM; IC50 (second compound 0.316 µM): > 10 µM; IC50 (second compound 1 µM): > 10 µM; IC50 (second compound 3.16 µM): > 10 µM; IC50 (second compound 10 µM): < 0.0316 µM; viability, T/C [1]: 109%; viability, T/C [2]: 88.7%; viability, T/C [3]: 96%; viability, T/C [4]: 83.6%; viability, T/C [5]: 97.4%; viability, T/C [6]: 71.6%; viability, T/C [7]: 106%; viability, T/C [8]: 93%; viability, T/C [9]: 97.8%; viability, T/C [10]: 85.6%; viability, T/C [11]: 91.1%; viability, T/C [12]: 82%; viability, T/C [13]: 88.8%; viability, T/C [14]: 91.8%; viability, T/C [15]: 81%; viability, T/C [16]: 102%; viability, T/C [17]: 81.2%; viability, T/C [18]: 67.6%; viability, T/C [19]: 74.2%; viability, T/C [20]: 66%; viability, T/C [21]: 83%; viability, T/C [22]: 82.3%; viability, T/C [23]: 83.3%; viability, T/C [24]: 61.9%; viability, T/C [25]: 62.4%; viability, T/C [26]: 61.1%; viability, T/C [27]: 60.5%; viability, T/C [28]: 71.8%; viability, T/C [29]: 71.3%; viability, T/C [30]: 57%; viability, T/C [31]: 43.6%; viability, T/C [32]: 33.7%; viability, T/C [33]: 39.9%; viability, T/C [34]: 44.4%; viability, T/C [35]: 45.5%; viability, T/C [36]: 37.1%
